# Experimental data from ChEMBL document CHEMBL4613212, “Insights of synthetic analogues of anti-leprosy agents” (Bioorg Med Chem, 2019).
# Tests used:
# [1] = Inhibition of Mycobacterium smegmatis ATCC 607 dihydrofolic reductase; design: species or system Mycolicibacterium smegmatis
# [2] = system: Mycolicibacterium smegmatis; assay: Inhibition of Mycobacterium smegmatis ATCC 607 dihydrofolic reductase assessed as ratio of Km to Ki
# [3] = system: Mycolicibacterium smegmatis; assay: Antimicrobial activity against Mycobacterium smegmatis ATCC 607; type: functional; details: Mycolicibacterium smegmatis, ATCC 607; read-out: MIC
# Mycobacterium leprae = assay: Anti-leprotic activity against Mycobacterium leprae assessed as maximum bactericidal dilutions; type: functional
# [4] = system: Mycobacterium tuberculosis; assay: Antitubercular activity against Mycobacterium tuberculosis H37Rv ATCC 27294 assessed as growth inhibition at 6.25 ug/ml by microplate alamar blue assay relative to control; type: functional
# [5] = system: Mycobacterium tuberculosis; assay: Antitubercular activity against Mycobacterium tuberculosis H37Rv ATCC 27294 assessed as inhibition of [3H]-thymidine incorporation relative to control; type: functional
# Enterococcus faecalis [6] = assay: Antimicrobial activity against Enterococcus faecalis ATCC 29212 by broth microdilution assay; type: functional
# Staphylococcus aureus = assay: Antimicrobial activity against Staphylococcus aureus ATCC 25923 by broth microdilution assay; type: functional
# Enterococcus faecalis [7] = assay: Antimicrobial activity against Enterococcus faecalis ATCC 51922 by broth microdilution assay; type: functional
# Listeria monocytogenes = assay: Antimicrobial activity against Listeria monocytogenes ATCC 1911 by broth microdilution assay; type: functional
# Klebsiella pneumoniae = assay: Antimicrobial activity against Klebsiella pneumoniae 700603 by broth microdilution assay; type: functional
# Pseudomonas aeruginosa = assay: Antimicrobial activity against Pseudomonas aeruginosa ATCC 27853 by broth microdilution assay; type: functional
# Escherichia coli [8] = assay: Antimicrobial activity against Escherichia coli ATCC 35218 by broth microdilution assay; type: functional
# Escherichia coli [9] = assay: Antimicrobial activity against Escherichia coli ATCC 25922 by broth microdilution assay; type: functional
# [10] = system: Mycobacterium tuberculosis; assay: Antitubercular activity against Mycobacterium tuberculosis H37Rv ATCC 27294 incubated for 7 days by microplate alamar blue assay; type: functional; details: H37Rv ATCC 27294, 168 h
compound,measurement,setting,value
COc1cc(Cc2cnc3nc(N)nc(N)c3n2)cc(OC)c1OC,Ki,[1],5 nM
same,Ratio,[2],230
same,MIC,[3],347 µM
CCCCCCCCCC(C(=O)O)C1CCCC1 (centres undefined),fold change (FC),Mycobacterium leprae,111
C=CCn1cnc2c(-c3ccco3)ncnc21,inhibition at 6.25 µg/mL,[4],7%
same,inhibition (INH),[5],11%
COc1ccc(/C=N/NC(=S)Nc2ccc(C(F)(F)F)cc2)cc1,MIC,Enterococcus faecalis [6],400 µg/mL
same,MIC,Staphylococcus aureus,400 µg/mL
same,MIC,Enterococcus faecalis [7],400 µg/mL
same,MIC,Listeria monocytogenes,800 µg/mL
same,MIC,Klebsiella pneumoniae,400 µg/mL
same,MIC,Pseudomonas aeruginosa,400 µg/mL
same,MIC,Escherichia coli [8],800 µg/mL
same,MIC,Escherichia coli [9],400 µg/mL
same,MIC,[10],200 µg/mL
CCCCCCCCCCC(C(=O)O)C1CCCC1 (centres undefined),fold change (FC),Mycobacterium leprae,143
c1csc(-c2ncnc3c2ncn3C2CCOCC2)c1,inhibition at 6.25 µg/mL,[4],0%
same,inhibition (INH),[5],23%
c1csc(-c2[nH]cnc3ncnc2-3)c1,inhibition at 6.25 µg/mL,[4],7%
same,inhibition (INH),[5],<10%
Cn1cnc2c(-c3ccco3)ncnc21,inhibition at 6.25 µg/mL,[4],0%
same,inhibition (INH),[5],<10%
FC(F)(F)c1ccc(NC(=S)N/N=C/c2ccc(Br)cc2)cc1,MIC,Enterococcus faecalis [6],400 µg/mL
same,MIC,Staphylococcus aureus,400 µg/mL
same,MIC,Enterococcus faecalis [7],400 µg/mL
same,MIC,Listeria monocytogenes,400 µg/mL
same,MIC,Klebsiella pneumoniae,400 µg/mL
same,MIC,Pseudomonas aeruginosa,400 µg/mL
same,MIC,Escherichia coli [8],800 µg/mL
same,MIC,Escherichia coli [9],400 µg/mL
same,MIC,[10],400 µg/mL
CCc1nc(N)nc(N)c1-c1ccc(Cl)cc1 [PYRIMETHAMINE],Ki,[1],75 nM
same,Ratio,[2],0.8
same,MIC,[3],101 µM
Clc1nc(-c2cccs2)c2ncn(C3CCOCC3)c2n1,inhibition at 6.25 µg/mL,[4],7%
same,inhibition (INH),[5],61%
Clc1nc(-c2ccco2)c2ncn(C3CCOCC3)c2n1,inhibition at 6.25 µg/mL,[4],6%
same,inhibition (INH),[5],36%
CC(C)c1ccc(/C=N/NC(=S)Nc2ccc(C(F)(F)F)cc2)cc1,MIC,Enterococcus faecalis [6],400 µg/mL
same,MIC,Staphylococcus aureus,400 µg/mL
same,MIC,Enterococcus faecalis [7],400 µg/mL
same,MIC,Listeria monocytogenes,400 µg/mL
same,MIC,Klebsiella pneumoniae,400 µg/mL
same,MIC,Pseudomonas aeruginosa,400 µg/mL
same,MIC,Escherichia coli [8],800 µg/mL
same,MIC,Escherichia coli [9],400 µg/mL
same,MIC,[10],200 µg/mL
CCCCCCCCCC(C(=O)O)C1CCCCC1 (centres undefined),fold change (FC),Mycobacterium leprae,190
FC(F)(F)c1ccc(NC(=S)N/N=C/c2ccc(Cl)cc2)cc1,MIC,Enterococcus faecalis [6],400 µg/mL
same,MIC,Staphylococcus aureus,400 µg/mL
same,MIC,Enterococcus faecalis [7],400 µg/mL
same,MIC,Listeria monocytogenes,800 µg/mL
same,MIC,Klebsiella pneumoniae,400 µg/mL
same,MIC,Pseudomonas aeruginosa,400 µg/mL
same,MIC,Escherichia coli [8],400 µg/mL
same,MIC,Escherichia coli [9],400 µg/mL
same,MIC,[10],400 µg/mL
O=C(N[C@H](CO)[C@H](O)c1ccc([N+](=O)[O-])cc1)C(Cl)Cl [CHLORAMPHENICOL],MIC,Enterococcus faecalis [6],200 µg/mL
same,MIC,Staphylococcus aureus,100 µg/mL
same,MIC,Enterococcus faecalis [7],200 µg/mL
same,MIC,Listeria monocytogenes,100 µg/mL
same,MIC,Klebsiella pneumoniae,200 µg/mL
same,MIC,Pseudomonas aeruginosa,200 µg/mL
same,MIC,Escherichia coli [8],100 µg/mL
same,MIC,Escherichia coli [9],25 µg/mL
c1coc(-c2ncnc3c2ncn3C2CCOCC2)c1,inhibition at 6.25 µg/mL,[4],0%
same,inhibition (INH),[5],15%
c1coc(-c2ncnc3c2ncn3CC2CCCCC2)c1,inhibition at 6.25 µg/mL,[4],22%
same,inhibition (INH),[5],60%
CCCCCCCCCC(C(=O)O)C1C=CCC1 (centres undefined),fold change (FC),Mycobacterium leprae,150
c1ccc(CCn2cnc3c(-c4ccco4)ncnc32)cc1,inhibition at 6.25 µg/mL,[4],26%
same,inhibition (INH),[5],53%
Cc1cnc2nc(N)nc(N)c2n1,Ki,[1],5100 nM
same,Ratio,[2],0.8
same,MIC,[3],> 568 µM
Cc1ccc(/C=N/NC(=S)Nc2ccc(C(F)(F)F)cc2)cc1,MIC,Enterococcus faecalis [6],400 µg/mL
same,MIC,Staphylococcus aureus,400 µg/mL
same,MIC,Enterococcus faecalis [7],400 µg/mL
same,MIC,Listeria monocytogenes,800 µg/mL
same,MIC,Klebsiella pneumoniae,400 µg/mL
same,MIC,Pseudomonas aeruginosa,400 µg/mL
same,MIC,Escherichia coli [8],800 µg/mL
same,MIC,Escherichia coli [9],400 µg/mL
same,MIC,[10],200 µg/mL
CN(C)c1ccc(/C=N/NC(=S)Nc2ccc(C(F)(F)F)cc2)cc1,MIC,Enterococcus faecalis [6],400 µg/mL
same,MIC,Staphylococcus aureus,400 µg/mL
same,MIC,Enterococcus faecalis [7],400 µg/mL
same,MIC,Listeria monocytogenes,400 µg/mL
same,MIC,Klebsiella pneumoniae,400 µg/mL
same,MIC,Pseudomonas aeruginosa,400 µg/mL
same,MIC,Escherichia coli [8],400 µg/mL
same,MIC,Escherichia coli [9],400 µg/mL
same,MIC,[10],200 µg/mL
CCCCCCC(CCC1CCCCC1)C(=O)O (centres undefined),fold change (FC),Mycobacterium leprae,125
